Measurements: patent publication US10851075B2, “Stat3 pathway inhibitors and cancer stem cell inhibitors” (Sumitomo Dainippon Pharma Oncology, Inc., priority 2007, dated 2020)
pIC50: −log10 of the molar value. Like-named read-outs stand apart in the source and are kept apart here.

Columns and labels:
HeLa cells = assay: MTT cell viability, HeLa; format: cell-based; settings: Homo sapiens, MTT at 24 hours; for IC50: Hela, Table 4, read-out: IC50 (μM) Hela
From the text: (§1) Cell Culture: HeLa, DU145, H1299, DLD1, SW480, A549, MCF7, LN18, HCT116, HepG2, Paca2, Panel, LNcap, FaDu, HT29, and PC3 cells (ATCC, Manassas, Va.) were maintained in Dulbecco's Modified Eagle Medium (DMEM) (Invitrogen, Carlsbad, Calif.) supplemented with 10% fetal bovine serum (MS) (Gemini Bio-Products, West Sacramento, Calif.) and 5% penicillin/streptomycin/amphotercin B (Invitrogen).
(§2) Cell Viability Determination: For 3-(4,5 dimethylthiazol-2-yl)-2,5-diphenyltetrazolium (MTT) (Sigma-Aldrich, St. Louis, Mo.) analysis, cells were plated in 96 well plates at 10,000 cells per well. 24 hours after plating, compound was added to cells at indicated doses. 22 hours following compound addition, MTT was added to each well (0.5 mg/ml, final concentration) and plates were incubated for an additional 2 hours at 37° C., Medium was then aspirated and the formazan product was solubilized in 100 μl of isopropyl alcohol. The absorbance of each well was measured at 570 nm using a microplate reader.
(§3) Identification of compounds that are apoptotic to a broad spectrum of cancer cells in vitro. Cells plated in 96 well plates and treated with indicated compounds were subjected to MTT analysis at 24 hours following compound treatment to determine cell viability.

H1299 cells = assay: MTT cell viability, H1299; format: cell-based; settings: Homo sapiens, NCI-H1299, MTT at 24 hours; for IC50: H1299, Table 4, read-out: IC50 (μM) H1299
From the text: as §1, §2, §3

DU145 cells = assay: MTT cell viability, DU145; format: cell-based; settings: Homo sapiens, DU-145, MTT at 24 hours; for IC50: DU145, Table 4, read-out: IC50 (μM) DU145
From the text: as §1, §2, §3

[1] = target: T1, Stat3 DNA-binding activity (Homo sapiens, UniProt P40763); assay: Stat3 DNA binding assay (EMSA), HeLa nuclear extract; format: biochemical; settings: for inhibition % 1 × MTT IC50: compound at 1 × MTT IC50, untreated Stat3 retarded band set as 100; for inhibition % 3 × MTT IC50: compound at 3 × MTT IC50, untreated Stat3 retarded band set as 100
T1 construct: endogenous in cells; host or cells: HeLa cells (nuclear extract)
Experimental: STAT3 DNA Binding Assay: Electrophoretic mobility shift assay (EMSA) was performed as described by the manufacturer (Li-Cor Biosciences, Lincoln, Nebr.). Briefly, nuclear extracts were made from HeLa cells using the NucBuster Protein Extraction Kit as described by the manufacturer (EMD Biosciences, San Diego, Calif.). 5 μg of nuclear extract was pre-incubated with the indicated dose of indicated compound for 30 minutes prior to a 15-minute incubation with the IR700-labeled consensus Stat3 oligonucleotide. Samples were then electrophoresed on a polyacrylamide gel and directly scanned using the Odyssey infrared imaging system (Li-Cor Biosciences). For the enzyme-linked immunosorbent assay (ELISA), 5 μg of nuclear extract was preincubated with indicated concentration of indicated compound for 30 minutes prior to the addition of biotinylated oligo (5′-Biotin-[…]-3′). Stat3-DNA complexes were then captured on streptavidin coated 96 well plates (Pierce, Rockford, Ill.). Bound complexes were then incubated with Stat3 polyclonal antibody (Santa Cruz Biotechnology, Santa Cruz, Calif.) followed by anti-rabbit HRP conjugated secondary antibody (GE Healthcare, Pittsburgh, Pa.). Bound antibody was then visualized by addition of TMB substrate (Pierce) and absorbance measured at 450 nm.
Inhibition of Stat3 DNA-binding activity. Nuclear extracts from HeLa cells, which contain constitutively activated Stat3 as detected by phoshporylation at the tyrosine 705 residue, were used to perform Stat3 EMSAs to monitor Stat3 DNA binding activity. Nuclear extracts were incubated with indicated compound prior to incubation with IR700-labeled Stat3 consensus oligonucleotide. Binding of Stat3 to the oligonucleotide was monitored by gel electrophoresis and detection using a LiCor Odyssey infrared scanner.
To calculate the inhibition %, the density of the untreated Stat3 retarded band (control) was set as 100 and the inhibition % was the difference between the control and the relative DNA binding activity of the drug-treated samples.

SW480 NSP cells = assay: Anti-CSC MTT assay, SW480 non-SP (NSP) cells; format: cell-based; settings: Homo sapiens, 48 h
Experimental: as §2
(§4) Hoechst Side Population: To identify and isolate side population (SP) and non-SP fractions, SW480 cells were removed from the culture dish with trypsin and EDTA, pelleted by centrifugation, washed with phosphate-buffered saline (PBS), and resuspended at 37° C. in Dulbecco's modified Eagle's medium (DMEM) containing 2% FBS and 1 rnM HEPES. The cells were then labeled with Hoechst 33342 (Invitrogen) at a concentration of 5 μg/mL. The labeled cells were incubated for 120 minutes at 37° C., either alone or with 50 μM verapamil (Sigma-Aldrich, St. Louis). After staining, the cells were suspended in Hanks' balanced saline solution (MISS; Invitrogen) containing 2% FBS and 1 mM HEPES, passed a through 40 μm mesh filter, and maintained at 4° C. until flow cytometry analysis. The Hoechst dye was excited at 350 nm, and its fluorescence was measured at two wavelengths using a 450 DF10 (450/20 nm band-pass filter) and a 675LP (675 nm long-pass edge filter) optical filter. The gating on forward and side scatter was not stringent, and only debris was excluded.
(§5) In order to test compounds for anti-CSC activity, freshly isolated CSCs (SW480 Hoechst SP cells or CD44^high FaDu cells) were exposed to a dose range (30-0.117 μM) of compound for 48 h before examining cell viability by MTT assay. IC50s were estimated by plotting the percentage of surviving cells. As shown in Table 7 and Table 8, the compounds of present invention can target cancer stem cells.

SW480 Hoechst SP cells = assay: Anti-CSC MTT assay, SW480 Hoechst side population (SP) cells; format: cell-based; settings: Homo sapiens, 48 h
Experimental: as §2, §4, §5

[2] = tested on: Stat3 transcription activity; assay: Stat3-luciferase (Stat3-Luc) reporter assay in HeLa cells, OSM stimulated; format: cell-based; settings: Homo sapiens, compound 30 minutes before 25 ng/ml oncostatin M, 6 hours, read-out: IC50 in Stat3-Luc assays
Experimental: Luciferase Reporter Assay: HeLa Cells were co-transfected with Stat3-luciferase (Stat3-Luc) reporter vector (Panomics, Fremont, Calif.) and Renilla luciferase (Promega, Madison, Wis.) using Lipofectamine 2000 as described by the manufacturer (Invitrogen). Following transfection, cells were maintained in medium containing 0.5% FBS for 24 hours. Cells were then treated with the indicated compound for 30 minutes prior to the addition of 25 ng/ml oncostatin M (OSM) (R&D Systems, Minneapolis, Minn.) to the medium. 6 hours following OSM addition, cells were harvested and levels of firefly and renilla luciferase were measured using the Dual-Glo Luciferase Assay System as described by the manufacturer (Promega).
Inhibition of Stat3 transcription activity. Compounds were tested for their ability to inhibit Stat3 transcription activation activity in cells using a Stat3-luciferase (Stat3-luc) reporter construct. Cells transfected with Stat3-luc were cultured in reduced serum medium prior to addition of indicated compound for 30 minutes. Cells were then stimulated with 25 ng/ml oncostatin (OSM) for 6 hours followed by detection of Stat3-luc reporter activity.

DLD1 cells = assay: MTT cell viability, DLD1; format: cell-based; settings: Homo sapiens, DLD-1; DLD1, Colon; MTT at 24 hours; Table 3
From the text: as §1, §2, §3

SW480 cells = assay: MTT cell viability, SW480; format: cell-based; settings: Homo sapiens; SW480, Colon; MTT at 24 hours; Table 3
From the text: as §1, §2, §3

PC3 cells = assay: MTT cell viability, PC3; format: cell-based; settings: Homo sapiens, PC-3; PC3, Prostate; MTT at 24 hours; Table 3
From the text: as §1, §2, §3

Panc1 cells = assay: MTT cell viability, Panc1; format: cell-based; settings: Homo sapiens, PANC-1; Panc1, Pancreas; MTT at 24 hours; Table 3
From the text: as §1, §2, §3

Paca2 cells = assay: MTT cell viability, Paca2; format: cell-based; settings: PaCa-2; Paca2, Pancreas; MTT at 24 hours; Table 3
From the text: as §1, §2, §3

T1 sequence (P40763 whole entry): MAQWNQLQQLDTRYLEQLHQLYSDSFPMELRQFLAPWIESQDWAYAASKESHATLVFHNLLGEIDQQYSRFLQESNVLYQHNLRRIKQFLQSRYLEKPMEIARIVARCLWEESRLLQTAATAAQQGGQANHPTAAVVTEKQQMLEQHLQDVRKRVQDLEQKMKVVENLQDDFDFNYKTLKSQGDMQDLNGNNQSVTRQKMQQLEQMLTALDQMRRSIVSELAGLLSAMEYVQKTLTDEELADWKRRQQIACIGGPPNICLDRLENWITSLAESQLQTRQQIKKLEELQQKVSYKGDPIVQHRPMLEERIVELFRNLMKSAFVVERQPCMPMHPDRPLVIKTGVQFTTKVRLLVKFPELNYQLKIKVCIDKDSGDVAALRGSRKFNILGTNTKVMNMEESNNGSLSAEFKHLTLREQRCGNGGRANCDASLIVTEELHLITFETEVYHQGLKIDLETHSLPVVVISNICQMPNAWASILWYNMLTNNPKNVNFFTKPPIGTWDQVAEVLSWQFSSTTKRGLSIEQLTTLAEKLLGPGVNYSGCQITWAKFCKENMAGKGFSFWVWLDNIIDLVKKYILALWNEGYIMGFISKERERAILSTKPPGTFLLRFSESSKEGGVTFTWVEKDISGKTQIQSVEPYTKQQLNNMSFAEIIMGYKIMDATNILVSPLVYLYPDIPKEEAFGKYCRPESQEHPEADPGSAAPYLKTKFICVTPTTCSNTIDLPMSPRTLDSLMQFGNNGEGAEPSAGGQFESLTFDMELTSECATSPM

Row | Structure (SMILES) | IC50 (HeLa cells) [µM] | IC50 (H1299 cells) [µM] | IC50 (DU145 cells) [µM] | inhibition % 1 × MTT IC50 [1] [%] | inhibition % 3 × MTT IC50 [1] [%] | other results
1 | CCc1cc2c(o1)C(=O)c1ccccc1C2=O [Compound 101] | 11.7 | 3 to 10 | 3.7 | – | – | –
2 | Cc1cc2c(o1)C(=O)c1ccccc1C2=O [Compound 102] | 11.4 | – | – | – | – | –
3 | CCc1cc2c(o1)C(=O)c1cc(Cl)ccc1C2=O [Compound 105] | 13 | 8.4 | 6.5 | – | – | –
4 | CCc1cc2c(o1)C(=O)c1cc(F)ccc1C2=O [Compound 106] | – | – | 4.84 | 26 | 51 | IC50 (SW480 NSP cells): 2 µM; IC50 (SW480 Hoechst SP cells): 4.44 µM
5 | Cc1oc2c(c1-c1ccccc1)C(=O)c1ccccc1C2=O [Compound 108] | 20.7 | – | 30.8 | – | – | –
6 | C=Cc1cc2c(o1)C(=O)c1ccccc1C2=O [Compound 201] | – | – | 1.76 | – | – | –
7 | CC(=O)OC(C)c1cc2c(o1)C(=O)c1cc(F)ccc1C2=O (stereo not drawn) [Compound 305] | 1.71 | – | 1.1 | – | – | –

Further lines, with some results ahead:

Row | IC50 (HeLa cells) [µM] | IC50 (H1299 cells) [µM] | IC50 (DU145 cells) [µM] | inhibition % 1 × MTT IC50 [1] [%] | inhibition % 3 × MTT IC50 [1] [%] | Structure (SMILES) | other results
8 | 16.7 | 8.9 | > 10 | 98 | 26 | O=C1c2ccccc2C(=O)c2oc(Cc3ccccc3)cc21 [Compound 103] | –
9 | 3.36 | 0.794 | – | 20 | 26 | CC(O)c1cc2c(o1)C(=O)c1ccccc1C2=O (stereo not drawn) [Compound 301] | –
10 | – | – | 2.88 | – | – | CC(=O)OC(C)c1cc2c(o1)C(=O)c1ccccc1C2=O (stereo not drawn) [Compound 303] | –
11 | 2.01 | 1.04 | 0.554 | 29 | 57 | O=C(c1ccccc1)c1cc2c(s1)C(=O)c1ccccc1C2=O [Compound 402] | pIC50 [2]: ~6.12; pIC50 (DLD1 cells): 5.60; pIC50 (SW480 cells): 5.83; pIC50 (PC3 cells): 5.07; pIC50 (HeLa cells; HeLa, Cervix, Table 3, read-out: IC50): 5.70; pIC50 (H1299 cells; H1299, Lung, Table 3, read-out: IC50): 5.98; IC50 (SW480 NSP cells): 0.38 µM; pIC50 (DU145 cells; DU145, Prostate, Table 3, read-out: IC50): 6.26; IC50 (SW480 Hoechst SP cells): 0.4 µM; pIC50 (Panc1 cells): 5.14; pIC50 (Paca2 cells): 6.31
12 | – | 4 | 6.5 | – | – | O=C(c1ccc([N+](=O)[O-])cc1)c1cc2c(s1)C(=O)c1ccccc1C2=O [Compound 403] | –
